Results as given in patent US20120178124A1, “STEROL SIDE CHAIN-CLEAVING ENZYME PROTEIN AND USE THEREOF” (MITSUBISHI CHEMICAL CORPORATION, priority 2009, published 2012).

T1: CYP11A (Homo sapiens, UniProt P05108)
T1 construct: A 1.45-kb CYP11A1 gene fragment amplified as a result of the above-described reaction; expressed in transfected cells; host or cells: Escherichia coli BL21(DE3), plasmid pCYP11A-ARX (strain BL21CYP11)
T1 sequence (P05108 40-521): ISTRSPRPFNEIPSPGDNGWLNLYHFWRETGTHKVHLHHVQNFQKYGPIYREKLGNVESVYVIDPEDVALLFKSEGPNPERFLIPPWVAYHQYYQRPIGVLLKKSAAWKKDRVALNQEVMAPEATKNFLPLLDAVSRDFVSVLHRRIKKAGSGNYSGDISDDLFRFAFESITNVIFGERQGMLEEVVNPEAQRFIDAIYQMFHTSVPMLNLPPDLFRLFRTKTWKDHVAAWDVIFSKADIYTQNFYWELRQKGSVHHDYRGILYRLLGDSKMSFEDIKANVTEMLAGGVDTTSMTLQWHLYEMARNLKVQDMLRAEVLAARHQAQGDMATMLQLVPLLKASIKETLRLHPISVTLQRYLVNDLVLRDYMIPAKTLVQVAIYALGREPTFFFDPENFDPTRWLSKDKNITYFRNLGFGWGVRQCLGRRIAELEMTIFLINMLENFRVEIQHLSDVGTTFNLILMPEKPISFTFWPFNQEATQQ

B1: Novosphingobium aromaticivorans ATCC 700278 P450scc CYP204A1, wild type, SEQ ID NO: 23 (Novosphingobium aromaticivorans DSM 12444) (protein)
chain: MARAATAAGNGLPLLDGGVPLLGHLAQFFRDPVSVLKRGYRSKGRLFAMNFMGQRMNVMLGPEHNRFFFEETDKLLSIRESMPFFLKMFSPEFYSFAEMDEYLRQRSIIMPRFKAASMKQYVPVMVEESLNLVERLGEEGEFDLIPTLGPVVMDIAAHSFMGREFHEKLGHEFFELFRDFSGGMEFVLPLWLPTPKMVKSQRAKRKLHAILQSWIDKRRAAPLDPPDFFQTMIETKYPDGRPVPDEIIRHLILLLVWAGHETTAGQVSWALADLLQNPDYQKVLRGEISSLLGGSDGRDLGWEQAVAMEKMDLALRETERLHPVAYMLSRKARADIERDGYVIRKGEFVLLAPSVSHRMEETFRNPDAYDPERFNPANPDAQIESNSLIGFGGGVHRCAGVNFARMEMKVLVAILLQNFDMELMDEVRPIAGASTYWPAQPCRVRYRRRKLDGSEAGADMAALARAAGCPAHT

Legend:
CYPSS204A = assay: Conversion reaction of substrates by Escherichia coli expression strain BP215; type: cell-based, Sphingomonas subterranea NBRC 16086; conditions: strain BP215, 28° C., 5 hours; for Conversion rate: to progesterone, pregnenolone or 7-dehydropregnenolone
Procedure: The temperature conditions applied during the PCR were 95° C./5 min, 30 cycles of (98° C./30 sec, 60° C./30 sec, and 68° C./2 min), and 68° C./10 min.
Analysis conditions: Using Chromolith speed rod RP18e (50×4.6 mm) column, 50%→100% CH3CN gradient (0 to 3 min) and 100% CH3CN (3 to 8 min) were used as a mobile phase, and detection was carried out at a flow rate of 2 ml/min using CAD™ (Charged Aerosol Detection) and MS.

CYP204A1 = conditions: for accumulated amount of pregnenolone / added substrate remained: strain BP172, same reaction as Example 6; for Conversion rate: strain BP172, same reaction as Example 6 (28° C., 5 hours)
Procedure: Novosphingobium aromaticivorans (ATCC 700278) was inoculated into an L medium, and it was then cultured at 30° C. for 2 days. Thereafter, genomic DNA was extracted from the cell mass obtained in the same manner as that of Example 1. A fragment comprising a CYPSS204A1 gene and a ferredoxin gene located downstream thereof was amplified from the above-described genomic DNA by using a primer CYP-5F (SEQ ID NO: 9) and a primer CYP-6R (SEQ ID NO: 10) and also using La Taq polymerase (manufactured by Takara Bio INC.). The temperature conditions applied during this operation were 94° C./3 min, 30 cycles of (98° C./20 sec, 63° C./30 sec, and 68° C./2 min), and 72° C./5 min.
Escherichia coli BL21(DE3) was transformed with this plasmid, and the obtained cell strain was named as BP172.
(§1) The Escherichia coli expression strain BP215 was inoculated into 2 ml of an M9 mix medium (Na2HPO4: 0.68%, KH2PO4: 0.3%, NaCl: 0.05%, NH4C;: 0.01%, Casamino acid: 1%, D-Glucose: 0.4%, CaCl2: 0.1 mM, MgCl2: 1 mM, Thiamine: 0.002%, FeSO4: 0.1 mM, Carbenicillin: 0.005%), and it was then subjected to shaking culture at 30° C. for 17 hours, so as to obtain pre-culture solution. 0.25 ml of this pre-culture solution was inoculated into 25 ml of the main culture medium (Na2HPO4: 0.68%, KH2PO4: 0.3%, NaCl: 0.05%, NH4Cl: 0.01%, Casamino acid: 1%, CaCl2: 0.1 mM, MgCl2: 1 mM, Thiamine: 0.002%, FeSO4: 0.1 mM, Carbenicillin: 0.005%, Overnight Express™ solution: 7%, 5-Aminolevlic acid: 0.008%) using Overnight Express™ Autoinduction System (Novagen Cat. No. 71300-4), and it was then subjected to shaking culture at 25° C. for 24 hours. 5 ml of the obtained main culture solution was centrifuged (3500 rpm, 10 minutes) to obtain cell mass, and 1 ml of CV2 buffer (50 mM (pH) potassium phosphate buffer containing glycerol: 2%, carbenicillin: 0.005%, and isopropyl β-D-1-thiogalactopyranoside: 0.1 mM) was added to the obtained cell mass. Thereafter, 0.01 ml of the methanol solution of 1% 4-cholesten-3-one and 0.02 ml of an aqueous solution of 25% methyl-β-cyclodextrin were added to the mixed solution, and the obtained mixture was then shaken at 28° C. for 5 hours for the reaction. After completion of the reaction, 4 ml of methanol was added to the reaction solution, and they were then fully mixed. The obtained mixture was centrifuged, and the upper layer was then analyzed by HPLC.
As substrates, 4-cholesten-3-one, cholesterol, 7-dehydrocholesterol, ergosterol, 13-sitosterol, stigmasterol, campesterol, desmosterol, (20S)-20-hydroxycholest-4-en-3-one, (22R)-22-hydroxycholest-4-en-3-one, (20R,22R)-20,22-dihydroxycholest-4-en-3-one, and (20R,22S)-20,22-dihydroxycholest-4-en-3-one were used. Each substrate was subjected to the same reaction as that of Example 6, separately, and the generated product was then analyzed by HPLC.

CYP11A = target: T1, CYP11A; assay: Conversion reaction of substrates by CYP11A-expressing Escherichia coli; type: cell-based; conditions: for accumulated amount of pregnenolone / added substrate remained: same reaction as Example 6; for Conversion rate: same reaction as Example 6 (28° C., 5 hours)
Procedure: as §1
A commercially available human testis cDNA (Origene Technologies, Inc.) was used as a template, and a CYP11A1 gene was amplified by PCR using a primer CYP11A-1F (SEQ ID NO: 19) and a primer CYP11A-2R (SEQ ID NO: 20), and also using KOD plus polymerase (TOYOBO Co., Ltd.). The temperature conditions applied during the PCR were 94° C./3 min, 30 cycles of (94° C./30 sec, 55° C./60 sec, and 72° C./90sec), and 72° C./5 min.
A 1.45-kb CYP11A1 gene fragment amplified as a result of the above-described reaction was purified using QIAquick PCR purification Kit (manufactured by QIAGEN), and it was then digested with Nde I and Spe I. Thereafter, the digest was ligated to Escherichia coli expression vector pT7NS-camAB, using T4 DNA ligase, and Escherichia coli DH5α was then transformed with the obtained expression vector, so as to construct a plasmid pCYP11A-camAB. Subsequently, using T4 DNA ligase, the previously prepared bovine-derived adrenodoxin reductase protein-adrenodoxin gene (adr-adx) fragment was inserted into and ligated to each of the Spe I and Bam HI sites of the above-described plasmid, and Escherichia coli DH5a was then transformed with the obtained plasmid, so as to construct plasmid pCYP11A-ARX. Thereafter, Escherichia coli BL21(DE3) was transformed with the thus constructed plasmid, and the obtained cell strain was named as BL21CYP11. The used adx-adr fragment was amplified by PCR with a plasmid pKARX (Sawada et. al. Eur. J. Biochem. 265, 950-956,1999) as a template, using primer bAdxR-1F (SEQ ID NO: 21) and primer bAdx-2R (SEQ ID NO: 22), and also using KOD plus polymerase (manufactured by TOYOBO Co., Ltd.). The temperature condition applied during the PCR were 94° C./3 min, 25 cycles of (94° C./30 sec, 60° C./30 sec, and 72° C./120sec), and 72° C./5 min.
Each substrate was subjected to the same reaction as that of Example 6, separately, and the reaction solution was then subjected to liquid separation using 1 ml of ethyl acetate. The reaction product and the substrate were extracted, and were then analyzed by HPLC.

[1] = substrate: CC(C)CCC[C@@H](C)[C@H]1CC[C@H]2[C@@H]3CCC4=CC(=O)CC[C@]4(C)[C@H]3CC[C@]12C; assay: purified protein, by the assay type; conditions: other: 4-cholesten-3-one 0.1 to 500 μM, pH 7.5, 15° C., 60 minutes, Lineweaver-Burk plot

Molecule | accumulated amount of pregnenolone (CYPSS204A) [mg/L] | added substrate remained (CYPSS204A) [%] | Conversion rate (CYPSS204A) [%] | accumulated amount of pregnenolone (CYP204A1) [mg/L] | added substrate remained (CYP204A1) [%] | Conversion rate (CYP204A1) [%] | accumulated amount of pregnenolone (CYP11A) [mg/L] | added substrate remained (CYP11A) [%] | Conversion rate (CYP11A) [%] | accumulated amount of side-chain cleavage product (CYPSS204A) [mg/L] | Km [1] [µM]
CC(C)CC[C@@H](O)[C@](C)(O)[C@H]1CC[C@H]2[C@@H]3CC=C4C[C@@H](O)CC[C@]4(C)[C@H]3CC[C@]12C [(20R,22R)-20,22-dihydroxy-cholesterol] | 53.0 | 0 | 53.0 | 51.6 | 0 | 51.6 | 32.3 | 51.6 | 32.3 |  | 
CC(C)CC[C@@H](O)[C@@H](C)[C@H]1CC[C@H]2[C@@H]3CC=C4C[C@@H](O)CC[C@]4(C)[C@H]3CC[C@]12C [(22R)-22-hydroxy-cholesterol] | 80.0 | 14.8 | 80 | 69.5 | 42.8 | 69.5 | 28.0 | 78.6 | 28.0 |  | 
CC[C@H](/C=C/[C@@H](C)[C@H]1CC[C@H]2[C@@H]3CC=C4C[C@@H](O)CC[C@]4(C)[C@H]3CC[C@]12C)C(C)C [stigmasterol] |  | 70.8 | 5.8 |  |  | 6.5 |  | 100 | 0 | 5.8 | 
B1 |  |  |  |  |  |  |  |  |  |  | 1.0
